What all share (assay): inhibition of PEG-3 promoter-driven reporter – cell-based, HeLa, luciferase, CREF/GAPDH counter-screen panel, dose response (AID 624167)
Test [1] relates to PEG-3. To be noted: HeLa PEG-Prom luciferase reporter, overnight, CREF/GAPDH counter-screens.
The target of test [2] is PEG-3 (UniProt Q6IN02). To be noted: HeLa PEG-Prom luciferase reporter, overnight, CREF/GAPDH counter-screens, mean of runs.
Test [3] concerns Rat fibroblasts (CREF). The settings on record: CREF/GAPDH counter-screens.
Where [4] appears, read: run 1, dose range 1, individual replicate IC50 per panel.
[5] abbreviates: run 2, dose range 1, individual replicate IC50 per panel.

PEG-3 (UniProt Q6IN02), sequence (Q6IN02 whole entry, looked up): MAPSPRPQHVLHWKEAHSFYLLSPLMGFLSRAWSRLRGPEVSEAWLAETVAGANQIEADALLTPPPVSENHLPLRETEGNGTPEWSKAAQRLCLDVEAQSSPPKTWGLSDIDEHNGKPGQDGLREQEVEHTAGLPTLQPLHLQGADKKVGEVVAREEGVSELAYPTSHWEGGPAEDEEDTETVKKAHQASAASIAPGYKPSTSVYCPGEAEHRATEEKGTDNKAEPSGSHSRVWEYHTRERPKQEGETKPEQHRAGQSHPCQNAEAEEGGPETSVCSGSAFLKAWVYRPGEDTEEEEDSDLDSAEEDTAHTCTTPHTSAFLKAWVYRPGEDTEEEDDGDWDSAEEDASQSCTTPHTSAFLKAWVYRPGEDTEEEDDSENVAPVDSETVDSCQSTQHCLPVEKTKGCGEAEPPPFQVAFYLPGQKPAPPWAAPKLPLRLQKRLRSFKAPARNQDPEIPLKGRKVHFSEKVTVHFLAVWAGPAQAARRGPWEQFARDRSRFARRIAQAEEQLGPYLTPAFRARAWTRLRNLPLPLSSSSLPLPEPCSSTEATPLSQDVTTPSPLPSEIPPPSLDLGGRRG

With `O=C(Nc1nc2cc3c(cc2s1)OCCO3)C1=COCCO1`, the IC50 in test [1] (setting [4]) was 0.431 µM; in test [1] (setting [5]), 0.622 µM; in test [2] it was 0.526 µM; in test [3] (mean of runs), 0.924 µM; in test [3] (setting [4]), 0.575 µM; in test [3] (setting [5]) it was 1.27 µM.
With `S=C(NN=C(c1ccccc1)c1ccccn1)N(Cc1ccccn1)Cc1ccccn1`, the IC50 was 2.58 µM in test [1] (setting [4]); 1.8 µM in test [1] (setting [5]); 2.19 µM in test [2]; 6.99 µM in test [3] (mean of runs); 4.59 µM in test [3] (setting [4]); 9.4 µM in test [3] (setting [5]).
For `O=C(/C=C\Nc1ccc2c(c1)OCO2)c1ccccn1`, the IC50 in test [1] (setting [4]) was 1.15 µM; in test [1] (setting [5]), 1.87 µM; in test [2] it was 1.51 µM; in test [3] (mean of runs), 1.09 µM; in test [3] (setting [4]), 1.04 µM; in test [3] (setting [5]), 1.14 µM.
Regarding `C=C1CC(COc2ccc3c(C)c(Cl)c(=O)oc3c2)(c2ccccc2)OC1=O` (configuration not stated), the IC50 is 6.47 µM in test [1] (setting [4]); 3.62 µM in test [1] (setting [5]); 5.04 µM in test [2]; 9.11 µM in test [3] (mean of runs); 9.32 µM in test [3] (setting [4]); 8.9 µM in test [3] (setting [5]).
On to `O=C(OCC(F)(F)F)c1cccc(COc2ccc3ccccc3c2)c1`, for which the IC50 in test [1] (setting [4]) is 1.14 µM; in test [1] (setting [5]) it was 1.4 µM; in test [2] it was 1.27 µM; in test [3] (mean of runs), 16.1 µM; in test [3] (setting [4]), 14.9 µM; in test [3] (setting [5]) it was 17.3 µM.
Turning to `CC1CCN(c2ccc(-c3cccc(NC(=O)C(F)(F)F)c3)nn2)CC1`, the IC50 in test [1] (setting [4]) was 1.84 µM; in test [1] (setting [5]) it was 2.37 µM; in test [2], 2.11 µM; in test [3] (mean of runs) it was 0.853 µM; in test [3] (setting [4]), 0.869 µM; in test [3] (setting [5]), 0.837 µM.
For the molecule `CN(C)c1ccc(Nc2nc(N)c3ccccc3n2)cc1`, the IC50 was 2.51 µM in test [1] (setting [4]); 4.82 µM in test [1] (setting [5]); 3.66 µM in test [2]; 0.995 µM in test [3] (mean of runs); 0.869 µM in test [3] (setting [4]); 1.12 µM in test [3] (setting [5]).
With `COc1cccc2nc3c(C(=O)NCCN(C)C)cccc3cc12`, the IC50 is 11.2 µM in test [1] (setting [4]); 7.03 µM in test [1] (setting [5]); 9.14 µM in test [2]; 8.72 µM in test [3] (mean of runs); 12 µM in test [3] (setting [4]); 5.44 µM in test [3] (setting [5]).
On to `Cc1cc(C)c2c(N)c(C(=O)Nc3ncc(C)s3)sc2n1`, for which the IC50 is 1.09 µM in test [1] (setting [4]); 2.26 µM in test [1] (setting [5]); 1.67 µM in test [2]; 3.32 µM in test [3] (mean of runs); 2.88 µM in test [3] (setting [4]); 3.76 µM in test [3] (setting [5]).
For `CCOC(=O)Cc1csc(NC(=S)NC(=O)c2ccc(Cl)cc2)n1`, the IC50 in test [1] (setting [4]) is 7.55 µM; in test [1] (setting [5]), 3.68 µM; in test [2], 5.62 µM; in test [3] (mean of runs), 4.97 µM; in test [3] (setting [4]) it was 4.16 µM; in test [3] (setting [5]), 5.77 µM.
`CCc1ccc(C(=O)Nc2nc3ccccc3[nH]2)cc1`: the IC50 in test [1] (setting [4]) was 2.24 µM; in test [1] (setting [5]), 2.95 µM; in test [2] it was 2.59 µM; in test [3] (mean of runs), 0.476 µM; in test [3] (setting [4]), 0.298 µM; in test [3] (setting [5]) it was 0.654 µM.
On to `COc1ccccc1CNCC(O)Cn1c2ccccc2c2ccccc21` (configuration not stated), for which the IC50 in test [1] (setting [4]) was 10.1 µM; in test [1] (setting [5]), 7.69 µM; in test [2] it was 8.9 µM; in test [3] (mean of runs) it was 16.2 µM; in test [3] (setting [4]) it was 16.7 µM; in test [3] (setting [5]), 15.7 µM.
On to `O=c1c2ccccc2cnn1-c1nc2ccccc2[nH]1`, for which the IC50 in test [1] (setting [4]) was 0.686 µM; in test [1] (setting [5]), 0.76 µM; in test [2], 0.723 µM; in test [3] (mean of runs), 0.546 µM; in test [3] (setting [4]), 0.475 µM; in test [3] (setting [5]) it was 0.617 µM.
As to `COC1=C(Br)C(=O)c2ncccc2C1=O`, the IC50 in test [1] (setting [4]) is 8.01 µM; in test [1] (setting [5]) it was 5.3 µM; in test [2], 6.65 µM; in test [3] (mean of runs) it was 14.2 µM; in test [3] (setting [4]), 8.91 µM; in test [3] (setting [5]), 19.4 µM.
As for `CCN(CCO)c1ccc(N=Nc2cc(C)[nH]n2)cc1`, the IC50 was 3 µM in test [1] (setting [4]); 6.22 µM in test [1] (setting [5]); 4.61 µM in test [2]; 2.24 µM in test [3] (mean of runs); 1.52 µM in test [3] (setting [4]); 2.97 µM in test [3] (setting [5]).
Regarding `O=C(NC(=O)c1ccccc1)Nc1ccccn1`, the IC50 in test [1] (setting [4]) was 1.25 µM; in test [1] (setting [5]), 1.88 µM; in test [2] it was 1.57 µM; in test [3] (mean of runs) it was 0.751 µM; in test [3] (setting [4]), 0.676 µM; in test [3] (setting [5]) it was 0.825 µM.
As for `CN(C)c1ccc(NC(=S)c2ccccn2)cc1`, the IC50 in test [1] (setting [4]) is 2.19 µM; in test [1] (setting [5]), 2.97 µM; in test [2], 2.58 µM; in test [3] (mean of runs), 1.2 µM; in test [3] (setting [4]), 1.25 µM; in test [3] (setting [5]), 1.15 µM.

Source of the values: PubChem BioAssay AID624167 (Sanford-Burnham Center for Chemical Genomics, 2012).
